According to publication PMC12494543, “Identification of ALKBH6 as a nucleotide demethylase with a distinct substrate preference” (The Journal of Biological Chemistry, 2025):
Values belong to the compound of their own block, whether it stands above or below them.

How the values were obtained:
[1] = test system: ALKBH6; experiment: ALKBH6 knockdown by shRNA, qPCR; type: cell-based, human; details: MCF7 cells, 48 h after transfection, vs Sh-control
Text: The GFP-tagged ALKBH6 expression plasmids were constructed by cutting the PCR-amplified WT ALKBH6 with XhoI and EcoRI, and then cloned in-frame and upstream of the sequence encoding the GFP pEGFP-N1 (Clontech). ALKBH6 shRNA constructs were generated using reported sequences (shALKBH6#1 5′ AGGAGTATTTGCTTCGACA 3′, shALKBH6#2 5′ […] 3′) and cloned into the pSilencer 2.1-U6 puro shRNA vector. All the shRNA constructs were confirmed by sequencing (Fig. S6). For negative control, pSilencer 2.1-U6 puro vector was used.
MCF7 cells were maintained in Dulbecco's modified Eagle's medium (DMEM) with 10% fetal bovine serum at 37 °C in a humidified air containing 5% CO2. Stable ALKBH6 knockdown cell line was generated by inserting the target sequence for ALKBH6 or the scramble control into the pSilencer2.puro (pSil) vector (Ambion) to form short hairpin RNAs for RNAi. For plasmid transfection in MCF7 cells, cells were suspended in DMEM without fetal bovine serum or antibiotics at a concentration of 1 × 10^7 cells/ml. A volume of 0.1 ml was transferred to a sterile electroporation cuvette (Bio-Rad Gene Pulser cuvette) and kept at room temperature for 5 min in the presence of 15 μg plasmid. Electroporation was performed using the Gene Pulser Xcell System (Bio-Rad) with 220 V/cm, 950 μF capacitance, and infinite resistance. […]

[2] = biological target: T1, ALKBH6 (Homo sapiens, UniProt Q3KRA9); experiment: Demethylation assay by HPLC analysis; type: biochemical; details: substrate 250 and 500 μM, 30 min
T1 construct: His-tag; made in house
Protocol: (§1) Following ALKBH6-mediated demethylation, NMPs and dNMPs were analyzed in an HPLC system (Shimadzu) equipped with a reversed-phase Shim-pack GIST C18 5 μm separation column (250 × 4.6 mm). For majority of the nucleotides including 1me-AMP, 1me-dAMP, 7me-dGMP, 6me-AMP, 7me-GMP, 3me-dCMP, dAMP, dCMP AMP, GMP, the column was equilibrated with mobile phase A (50 mM ammonium acetate) and mobile phase B (50 mM ammonium acetate, 50% of acetonitrile and 0.1% trifluoroacetic acid. For dGMP, different mobile phase A (50 mM ammonium acetate, 3% methanol, pH-5.0) and mobile phase B (methanol) were used. The peaks were identified based on the elution time of the standards (Fig. S9) purchased from Sigma and further analyzed using LabSolutions software (www.shimadzu.com) and analyzed by mass spectrometry.

[3] = biological target: T1, ALKBH6; experiment: FDH-coupled formaldehyde release demethylation assay; type: biochemical; details: for formaldehyde release / demethylation by ALKBH6: FDH-coupled assay, tested as substrate; for inhibition of ALKBH6-mediated demethylation: me-dNMPs as substrate
Protocol: (§2) NMPs including 1meAMP (Jena Bioscience, NU-1029-1,) 7meGMP (Jena Bioscience, NU-1135S), 6me-AMP (Sigma, M2780) were purchased. N-methylated deoxy-NMPs were prepared by methylating chemically synthesized 30-mer oligonucleotide containing either dA, dG, dC, or dT by MMS (5%, v/v) (0.59 M) MMS (Sigma, 129925) and purified as described before ([17]). The oligonucleotides were digested with nuclease P1 (NEB) at 37 °C for 4 h to produce deoxy-NMPs. After heat inactivating the nuclease, dNMPs were purified by HPLC and used for the demethylation reaction. N-methylated NMPs were purified similarly, using RNA as the starting material. For the demethylation reaction, ALKBH6 (1 μM) and me-dNMPs (1 mM) were mixed in the dioxygenase reaction buffer and incubated at 37 °C for 30 min. Formaldehyde release was detected by FDH-coupled DNA repair assay as described before ([32], [33]). Briefly, 1 mM NAD+ and 0.01 U FDH were added to the dioxygenase reaction buffer containing methylated nucleotide and ALKBH6. NADH generated was detected by the characteristic absorption peak (340 nm) using a 96-well multimode reader (Synergy, Biotek Instrument). Formaldehyde production was quantified from the standard curve and the initial velocities were determined using various substrate concentrations. The results were plotted and analyzed using GraphPad Prism.

[4] = biological target: T2, ALKBH6 Y120A (Homo sapiens, UniProt Q3KRA9, Y120A); experiment: Demethylation assay by HPLC analysis; type: biochemical; details: substrate 500 μM
T2 construct: His-tag; made in house
Protocol: as §1

[5] = biological target: T3, ALKBH6 E115A (Homo sapiens, UniProt Q3KRA9, E115A); experiment: Intrinsic tryptophan fluorescence quenching (Stern-Volmer); type: binding
T3 construct: His-tag; made in house
Protocol: (§3) All tryptophan fluorescence spectroscopy experiments were performed using a multimode plate reader (PerkinElmer). The excitation and emission wavelengths were fixed at 280 nm and 356 nm, respectively. To measure ALKBH6–ligand interactions, recombinant ALKBH6 (500 nM), and increasing concentrations of ligand (0–80 μM) were equilibrated in binding buffer (50 mM Hepes, pH 7.6, 300 mM KCl) for 1 h. For Stern–Volmer quenching analysis, the F0/F = 1 + KSV(L) formula was used, where, KSV is the Stern–Volmer constant, L is the concentration of the quencher, F0 and F represent the steady-state fluorescence intensities in the absence and presence of quencher, respectively. All the data were calculated with best-fit parameter values and 95% confidence intervals in GraphPad Prism software.

[6] = biological target: T2, ALKBH6 Y120A; experiment: as above; type: binding
Protocol: as §3

[7] = biological target: T1, ALKBH6; experiment: as above; type: binding; details: WT ALKBH6, 2OG omitted
Protocol: as §3

[8] = biological target: T2, ALKBH6 Y120A; experiment: Thermal shift analysis (DSF, SYPRO Orange); type: binding
Protocol: (§4) All the experiments were performed in Eco Real-Time PCR system as described before ([55]). Purified recombinant His-tag ALKBH6 or ALKBH6-Y120A (5 μM) was incubated with varying concentrations (0–50 μM) of 7methyl-GMP in binding buffer (50 mM Hepes pH7.6, and 75 mM KCl). SYPRO Orange was added to the reaction (20 μl) and melting derivatives (-dRFU/dT) of fluorescence emission were determined by measuring the fluorescence with temperature increment of 0.1 °C from 40 °C to 100 °C. The ΔTm was calculated by subtracting Tm of ALKBH6 from Tm of ALKBH6 with 7methyl-GMP. The changes of Tm (ΔTm) were plotted against increasing concentrations of 7methyl-GMP and dissociation constant was determined by using one site specific binding formula of GraphPad Prism software.

[9] = biological target: T1, ALKBH6; experiment: Thermal shift analysis (DSF, SYPRO Orange); type: binding; details: from ΔTm vs ligand concentration; read-out: apparent dissociation constant
Protocol: as §4

[10] = biological target: T4, ALKBH6 E115 mutant (Homo sapiens, UniProt Q3KRA9, E115A); experiment: FDH-coupled formaldehyde release demethylation assay; type: biochemical; details: substrate 500 μM
T4 construct: His-tag; made in house
Protocol: as §2

[11] = test system: ALKBH3; parameters: method as in PMID 28269980; details: cited from earlier work
[12] = test system: MTH1; parameters: method as in PMID 30304478; details: MTH1 substrate; cited from earlier work
[13] = test system: AlkB; details: AlkB substrate; cited from earlier work
[14] = substrate of ALKBH6, Michaelis-Menten

T1 sequence (Q3KRA9 whole entry): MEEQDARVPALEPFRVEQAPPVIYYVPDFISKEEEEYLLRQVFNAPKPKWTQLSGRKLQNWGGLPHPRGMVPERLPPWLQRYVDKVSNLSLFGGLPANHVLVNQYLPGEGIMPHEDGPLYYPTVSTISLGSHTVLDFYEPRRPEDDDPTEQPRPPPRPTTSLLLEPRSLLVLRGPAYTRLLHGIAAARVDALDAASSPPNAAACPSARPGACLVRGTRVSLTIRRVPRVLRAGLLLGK
T2 sequence (Q3KRA9 whole entry Y120A): as the sequence (Q3KRA9 whole entry) above, with Y120A counted along it
T4 sequence (Q3KRA9 whole entry E115A): as the sequence (Q3KRA9 whole entry) above, with E115A counted along it
T3 sequence (Q3KRA9 whole entry E115A): as the sequence (Q3KRA9 whole entry) above, with E115A counted along it

Compound: Sh #2: shRNA to ALKBH6, 5′ GCACCACCTGTAATCTACTAT 3′ in pSilencer 2.1-U6 puro vector (shRNA in pSilencer vector; only target-sense given)
reduction of ALKBH6 expression (knockdown) [1]: more than 90%

Compound: Cn1c(=N)ccn([C@H]2C[C@H](O)[C@@H](COP(=O)(O)O)O2)c1=O [3me-dCMP]
demethylation by ALKBH6 (HPLC) [2]: efficiently demethylate
formaldehyde release / demethylation by ALKBH6 [3]: Formaldehyde release was observed

Compound: Cn1c[n+]([C@@H]2O[C@H](CO)[C@@H](O)[C@H]2O)c2nc(N)[nH]c(=O)c21 [7me-guanosine, reference compound]
formaldehyde release / demethylation by ALKBH6 [3]: could not demethylate

Compound: Cn1cnc2c(ncn2[C@@H]2O[C@H](CO)[C@@H](O)[C@H]2O)c1=N [1me-adenosine, reference compound]
formaldehyde release / demethylation by ALKBH6 [3]: could not demethylate

Compound: Sh #1: shRNA to ALKBH6, 5′ AGGAGTATTTGCTTCGACA 3′ in pSilencer 2.1-U6 puro vector (shRNA in pSilencer vector; only target-sense given)
reduction of ALKBH6 expression (knockdown) [1]: 75%

Compound: Cn1c(=N)cc[nH]c1=O [3meC, N-3-methylcytosine]
kcat [11]: approximately 1.7 min^−1

Compound: COc1nc(N)nc2c1ncn2[C@@H]1O[C@H](COP(=O)(O)OP(=O)(O)OP(=O)(O)O)[C@@H](O)[C@H]1O [O^6-methyl-GTP]
kcat [12]: 0.3 s⁻¹

Compound: C[n+]1cn([C@H]2C[C@H](O)[C@@H](COP(=O)(O)O)O2)c2nc(N)[nH]c(=O)c21 [7me-dGMP]
demethylation by ALKBH6 (HPLC) [2]: efficiently demethylate
formaldehyde release / demethylation by ALKBH6 [3]: Formaldehyde release was observed
Km [3, 14]: 1.03 µM
kcat [3, 14]: 0.18 s⁻¹

Compound: Cn1cnc2c(ncn2[C@H]2C[C@H](O)[C@@H](COP(=O)(O)O)O2)c1=N [1me-dAMP]
demethylation by ALKBH6 (HPLC) [2]: efficiently demethylate
Km [13]: 2 µM
kcat [13]: 0.07 s⁻¹
formaldehyde release / demethylation by ALKBH6 [3]: Formaldehyde release was observed

Compound: Cn1c[n+]([C@@H]2O[C@H](COP(=O)([O-])OP(=O)(O)OP(=O)(O)O)[C@@H](O)[C@H]2O)c2nc(N)[nH]c(=O)c21 [7me-GTP]
Stern-Volmer constant (Ksv) [7]: 0.007 µM⁻¹
formaldehyde release / demethylation by ALKBH6 [3]: comparatively less

Compound: Cn1cnc2c(ncn2[C@@H]2O[C@H](COP(=O)(O)OP(=O)(O)OP(=O)(O)O)[C@@H](O)[C@H]2O)c1=N [1me-ATP]
formaldehyde release / demethylation by ALKBH6 [3]: comparatively less

Compound: COc1nc(N)nc2c1ncn2[C@H]1C[C@H](O)[C@@H](COP(=O)(O)OP(=O)(O)OP(=O)(O)O)O1 [O6-methyl-dGTP]
Km [12]: 13.2 µM
kcat [12]: 8.3 s⁻¹

Now from value to compound:

demethylation by ALKBH6 (HPLC) [2]: did not observe any demethylation
formaldehyde release / demethylation by ALKBH6 [3]: did not observe any demethylation
Compound: CNc1ncnc2c1ncn2[C@@H]1O[C@H](COP(=O)(O)O)[C@@H](O)[C@H]1O [6me-AMP]

inhibition of ALKBH6-mediated demethylation [3]: inhibited
Compound: O=C(O)CCC(O)C(=O)O (stereo not shown) [2HG, 2-hydroxyglutarate, reference compound]

demethylation (HPLC end product) [4]: little demethylation
demethylation by ALKBH6 (HPLC) [2]: converted
Stern-Volmer constant (Ksv) [5]: 0.035 ± 0.008 µM⁻¹
Stern-Volmer constant (Ksv) [6]: negative
Stern-Volmer constant (Ksv) [7]: 0.036 ± 0.009 µM⁻¹
ΔTm shift [8]: no significant ΔTm shift
Kd [9]: 620 nM
demethylation activity over time [10]: comparable to WT ALKBH6
formaldehyde release / demethylation by ALKBH6 [3]: Formaldehyde release was observed
Compound: C[n+]1cn([C@@H]2O[C@H](COP(=O)(O)O)[C@@H](O)[C@H]2O)c2nc(N)[nH]c(=O)c21 [7me-GMP, N-7-methyl-GMP]

demethylation by ALKBH6 (HPLC) [2]: converted to AMP
Stern-Volmer constant (Ksv) [7]: 0.011 ± 0.002 µM⁻¹
Compound: C[n+]1cnc2c(ncn2[C@@H]2O[C@H](COP(=O)(O)O)[C@@H](O)[C@H]2O)c1N [1me-AMP, N-1-methyl-adenosine monophosphate]

Stern-Volmer constant (Ksv) [7]: 0.004 µM⁻¹
Compound: Cn1c(N)nc2c(ncn2[C@@H]2O[C@H](COP(=O)(O)OP(=O)(O)OP(=O)(O)O)[C@@H](O)[C@H]2O)c1=O [1me-GTP]

inhibition of ALKBH6-mediated demethylation [3]: inhibited
Compound: O=C(O)CCC(=O)O [succinate, reference compound]
